{"source": "patent US20220323454A1", "about": "“PHENOTHIAZINES AND THEIR DERIVATIVES FOR USE AS A MEDICAMENT” (Guangzhou Virotech Pharmaceutical Co., Ltd., priority 2019, published 2022)", "key": {"OT-1 CTL cells": {"system": "OT-1 CTL cells", "test": "CTL cell division under PD-L1 protein inhibition (CFSE, flow cytometry)", "format": "cell-based", "details": "100 nM MTC; 10 nM SIINFEKL, 10 nM IL-2, 10 μg/mL mouse PD-L1 protein; 24, 48, 72 hours; FIG. 2B", "experimental": "(1) Preparation of CTL cells: The spleens of OT1 mice were obtained, ground and added with red blood cell lysate, to prepare single-cell suspension. The culture medium was 1640+10% FBS+50 μM βME+10 nM IL-2. Cell density was adjusted to about 2-4 million/mL. The cells were added with 10 nM OVA257-264, and cultured in a cell incubator at 37° C., 5% CO2. From the day of CTL preparation, cells were stained with FITC-labeled PD-1 antibody every day, and the changes of PD-1 expression on the cell surfaces were detected by flow cytometry.\n(2) The CTL cells were labeled with 5 nM CFSE, stimulated by 10 nM SIINFEKL and 10 nM IL-2, and added with 10 μg/mL mouse PD-L1 protein. The experimental group was also added with 100 nM MTC and stimulated for 24, 48, and 72 hours. The effects of PD-L1 protein and MTC on CTL cell division were observed by flow cytometry."}, "B16-OVA cells": {"system": "B16-OVA cells", "test": "CTL killing of IFN-γ-treated B16-OVA melanoma cells (microscope)", "format": "cell-based, mouse", "experimental": "(3) Melanoma cells B16-OVA (B16 cells expressing OVA gene) were treated with 10 μg/mL IFN-γ for 24 hours, and then mixed with CTL cells at a ratio of 1:5 and co-cultured for 4 hours. Cells were treated with 1 μM MTC. B16-OVA cells treated with DMSO or MTC only (without IFN-γ treatment) were used as control. The apoptosis of B16-OVA was observed by microscope, and then the killing ability of CTL cells to target cells was assessed.\n(§1) (4) The B16-OVA group received no treatment, and the medium was replaced with water in the Water group. The other groups were treated with 10 μg/mL IFNγ. After 24 hours, except for the B16-OVA group, each group was co-cultured with CTL cells at a ratio of 1:5 for 4 hours, and treated with MTC […], LMT (1 μM) or anti-PD1 (PD-1 antibody, 10 μg/mL, Nivolumab, BMS). The death of B16-OVA in each group was observed by microscope, and then the killing ability of CTL cells to target cells was assessed. […] The IFN-γ+MTC group and the IFN-γ+LMT group were treated with 10 μg/mL IFN-γ for 24 hours. The cells were then mixed with CTL cells at a ratio of 1:5, co-cultured for 4 hours and treated with MTC (1 μM) or LMT (1 μM). The MTC and LMT groups were treated with MTC (10 μM) or LMT (10 μM) only. The killing ability against target cells was observed."}, "B16-WT cells": {"system": "B16-WT cells", "test": "Killing of B16-WT melanoma cells, with or without CTL cells", "format": "cell-based, mouse", "details": "FIG. 4E", "experimental": "as §1"}, "PD-1 recruitment of SHP2 [1]": {"target": "T1, PD-1 recruitment of SHP2 (Homo sapiens, UniProt Q06124+Q15116)", "T1 construct": "expressed in transfected cells", "T1 sequence (Q15116 25-288)": "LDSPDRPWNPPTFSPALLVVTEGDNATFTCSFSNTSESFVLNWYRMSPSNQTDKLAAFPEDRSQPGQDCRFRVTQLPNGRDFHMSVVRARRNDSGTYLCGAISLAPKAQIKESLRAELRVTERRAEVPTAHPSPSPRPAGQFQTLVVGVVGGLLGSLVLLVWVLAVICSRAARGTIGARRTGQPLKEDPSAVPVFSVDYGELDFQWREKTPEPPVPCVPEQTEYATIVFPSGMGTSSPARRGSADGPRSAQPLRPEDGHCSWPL", "T1 sequence (Q06124 whole entry)": "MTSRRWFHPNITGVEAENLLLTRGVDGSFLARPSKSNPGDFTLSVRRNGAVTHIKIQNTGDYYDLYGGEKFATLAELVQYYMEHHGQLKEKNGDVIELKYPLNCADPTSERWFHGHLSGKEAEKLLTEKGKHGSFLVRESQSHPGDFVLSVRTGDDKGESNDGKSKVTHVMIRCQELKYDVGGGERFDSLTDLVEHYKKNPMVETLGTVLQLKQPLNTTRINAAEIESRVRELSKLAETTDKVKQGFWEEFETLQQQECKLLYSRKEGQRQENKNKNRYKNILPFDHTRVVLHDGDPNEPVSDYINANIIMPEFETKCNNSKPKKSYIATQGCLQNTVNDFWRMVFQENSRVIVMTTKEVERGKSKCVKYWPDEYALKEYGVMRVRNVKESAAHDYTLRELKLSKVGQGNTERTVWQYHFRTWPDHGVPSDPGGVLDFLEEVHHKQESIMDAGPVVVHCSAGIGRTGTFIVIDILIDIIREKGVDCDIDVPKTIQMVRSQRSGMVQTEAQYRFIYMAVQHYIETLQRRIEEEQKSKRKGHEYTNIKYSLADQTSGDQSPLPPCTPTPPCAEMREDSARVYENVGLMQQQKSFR", "test": "Split-luciferase PD-1-Cluc / Nluc-SHP2 interaction in 293T cells", "format": "cell-based", "details": "293T stable cell line, different concentrations of MTC, 6 hours; FIG. 7A", "source_text": "This example preliminarily explored the mechanism by which MTC inhibits PD-1 signaling, and assessed the ability of MTC to affect PD-1 recruitment of SHP2. The binding of PD-1 to ligands can recruit SHP2 protein to the surrounding T cell receptors, thereby inhibiting the activation of T cell receptor proximal kinases, reducing Lck-mediated phosphorylation of ZAP-70 protein and the initiation of downstream signaling pathways. Luciferase can be split into two fragments, N-terminal and C-terminal. When the two fragments are fused with other proteins, the activity of luciferase can be detected if the N-terminal and C-terminal luciferase fragments are close due to the interaction of their fusion proteins. Therefore, the strength of the interaction of the fused proteins can indirectly detected by measuring the activity of luciferase.\n(1) Fusion genes PD-1-Cluc and Nluc-SHP2 were transfected into 293T cells with liposomes to construct a stable cell line. The cells were added with different concentrations of MTC and cultured for 6 hours to observe the effect of MTC on the reading of luciferase."}, "PD-1 recruitment of SHP2 [2]": {"target": "T1, PD-1 recruitment of SHP2", "test": "Confocal localization of PD-1-GFP and SHP2-mCherry in 293T cells", "format": "cell-based", "details": "293T stable cell line, MTC 6 hours, then 1 μM PVD 5 minutes", "experimental": "(2) Fusion genes PD-1-GFP and SHP2-mCherry were transfected into 293T cells with liposomes to construct a stable cell line. The cells were added with MTC at different concentrations, cultured for 6 hours, and then treated with 1 μM PVD (a dephosphorylase inhibitor) for 5 minutes. Cells were fixed with 4% paraformaldehyde and the effect of MTC on the localization of GFP and mCherry, namely PD-1 and SHP2, was observed under Confocal."}, "PD-1 recruitment of SHP2 [3]": {"target": "T1, PD-1 recruitment of SHP2", "test": "Co-IP of PD-1-Flag and SHP2 in 293T cells", "format": "cell-based", "details": "293T co-transfected with PD-1-Flag and SHP2 plasmids, MTC at different concentrations; FIG. 7C", "experimental": "(3) The PD-1-Flag plasmid and SHP2 plasmid were co-transfected in 293T cells, and the cells were then treated with MTC at different concentrations. The ability of PD-1 to recruit SHP2 was detected by Co-IP."}}, "data": [{"smiles": "CN(C)c1ccc2nc3ccc(N(C)C)cc3[s+]c2c1", "note": "[MTC, 3,7-bis(dimethylamino)-phenothiazine-5-ium chloride]", "values": [{"measurement": "CTL cell division inhibited by PD-L1 protein", "setting": "OT-1 CTL cells", "value": "reversed the inhibition"}, {"measurement": "killing effects of CTL cells to B16-OVA cells", "setting": "B16-OVA cells; B16-OVA treated with 10 μg/mL IFNγ 24 hours, B16-OVA : CTL 1:5, 4 hours, MTC (1 µM), LMT (1 μM), FIGS. 4C and 4D", "value": "significantly enhanced"}, {"measurement": "combined killing effect with CTL cells on B16-OVA compared with the anti-PD-1 group", "setting": "B16-OVA cells; MTC (1 µM) or LMT (1 μM) vs anti-PD1 10 μg/mL, FIG. 4D", "value": "significantly stronger than that of the anti-PD-1 group"}, {"measurement": "killing effect on B16-WT cells, combination with CTL cells", "setting": "B16-WT cells; IFN-γ 10 μg/mL 24 hours, B16-WT : CTL 1:5, 4 hours, MTC (1 μM) or LMT (1 μM)", "value": "no killing effect"}, {"measurement": "killing effect on B16-WT cells, compound only", "setting": "B16-WT cells; MTC (10 μM) or LMT (10 μM) only", "value": "no killing effect"}, {"measurement": "readings of luciferase (PD-1-Cluc / Nluc-SHP2 interaction)", "setting": "PD-1 recruitment of SHP2 [1]", "value": "reduce the readings of luciferase"}, {"measurement": "localization of SHP2-mCherry relative to PD-1-GFP", "setting": "PD-1 recruitment of SHP2 [2]", "value": "dissociation of mCherry from the membrane"}, {"measurement": "binding of PD-1 to SHP2 (Co-IP)", "setting": "PD-1 recruitment of SHP2 [3]", "value": "prevented the binding of PD-1 to SHP2"}]}]}
